# Test results taken from patent US11084836B2, “Compositions useful in therapy of autophagy-related pathologies, and methods of making and using the same” (The University of Toledo, priority 2016, dated 2021).
# “Also recorded” adds a separate entry of the source.
# Experiments:
# RG2 glioma cells [1] = experiment: Autophagic flux assay: LC3-I to LC3-II conversion in the presence of bafilomycin-A1, western blot; type: cell-based, rat; conditions: for stimulation of autophagy / autophagic flux (LC3-II increase in presence of bafilomycin-A1): 4 h, 50 nM bafilomycin-A1; for potency of autophagy stimulation relative to LKE (ratio of LC3-II band densities): western blot densitometry
# Procedure: In the assay, cells are treated with subtoxic concentrations of bafilomycin-A, which blocks lysosomal acidification. This prevents autophagosome fusion with lysosomes at a specific point. […] Then, autophagy flux is measured by the conjugation of phosphatidylethanolamine to LC3-I, yielding an electrophoretically separable LC3-II. LC3-II acts as a link between nascent autophagosomes and cargo being directed into these structures. The autophagy intermediate protein LC3-II (a phosphatidylethanolamine-conjugated form of LC3-I) is measured by western blot. An autophagy enhancer will increase LC3-II in the presence of bafilomycin, whereas a compound that inhibits autophagy completion will not do so. Thus, the LC3A-I to LC3A-II conversion in the presence of bafilomycin-A1 constitutes a valid measure of autophagy.
# Autophagy is a complex process involving many different protein components, but predominant amongst its regulatory elements are the mammalian target of rapamycin complex-1 (mTORC1) and unc-51-like kinase-1 (ULK1, FIG. 14). mTORC1 is itself a kinase that inhibits ULK1. When nutrients and cell energy are limiting, mTORC1 is suppressed by the coordinated actions of tuberous sclerosis complex (TSC) proteins 1 and 2 (TSC1/2) and Rheb (Ras homolog enriched in the brain). This allows disinhibition of ULK1, which then associates with beclin-1 protein to form pre-autophagosomal structures. Autophagosomes mature in a process marked by phosphatidylethanolamine conjugation to microtubule associated protein 1 light chain 3 (LC3-I→LC3-II conversion). After lysosomal fusion, the autophagy components are turned over and the cycle completes. One of the most reliable ways to determine whether a treatment increases true autophagy flux is to measure LC3-I to LC3-II conversion in the absence and presence of the vacuolar ATPase inhibitor bafilomycin-A1. Bafilomycin neutralizes lysosomal pH, preventing autophagosome-lysosomal fusion, and traps LC3-II at a point prior to its turnover in mature autophagolysosomes.
# The cells were then incubated for an additional 4 h. At termination, the cell culture medium was removed, cells were washed with PBS and lysed on ice in Pierce RIPA buffer containing protease and phosphatase inhibitors.
# An increase in the intensity of this band in the presence of bafilomycin-A1 indicates increased autophagic flux.
# RG2 glioma cells (American Tissue Type Collection, ATTC, Rockville Md. USA) were treated for 4 h with 50 nM bafilomycin-A1 (previously dissolved to 1000× final concentration in dimethylsulfoxide). Thirty minutes after addition of bafilomycin, cells were treated with test agents at 100× final concentration. Cells were lysed in RIPA buffer containing protease and phosphatase inhibitors. Protein concentration was assayed and normalized to constant values (typically 5-7 mg/mL). Proteins were electrophoresed across 4-20% polyacrylamide gels and wet blotted onto polyvinylidine difluoride (PVDF) membranes. Proteins were blotted with commercially available antibodies against LC3.
# [2] = Stability of the isolated solid under high vacuum; type: physicochemical; conditions: isolated white solid, at least overnight
# Procedure: FIGS. 15A-15B show the ^1H NMR spectrum of 2-butyl-LK-P, with and without peak assignments. FIGS. 16A-16B show the ^1H NMR spectrum of 2-butyl-LK-P, with integration values and with and without peak assignments. ^1H NMR (CDCl3) δ 3.96 (br. s., 1H), 3.05 (d, J=12.4 Hz, 1H), 2.84-2.66 (m, 1H), 2.36 (br. s., 2H), 1.56-1.32 (m, 2H), 1.24 (d, J=6.2 Hz, 2H), 0.89-0.77 (m, 3H); HRMS (ESI) m/z calcd for C9H17NO5PS [M+H]^+ 282.0565, found 282.0645.
# Briefly, to a solution of DEIVP (500.0 mg, 2.222 mmol), in a biotage microwave vial, was added bromotrimethylsilane (1.333 mL, […]). The tube was purged with argon, covered and heated at 400 W for 10 min. The contents of the vial were transferred to a round bottom flask, the vial was washed with dichloromethane (3×3 mL) which was transferred to the flask. The solvent and excess bromotrimethylsilane were removed in vacuo. To the flask was added dichloromethane (10 mL), which was subsequently removed in vacuo to aid in the removal of any residual bromotrimethylsilane. To the flask was added dichloromethane (9 mL) and, to this solution, with stirring, was added a solution of bromine ([…]) in dichloromethane (3 mL). The resultant solution was heated to reflux for 15 min and the solvent was removed in vacuo. […]
# EOC-20 microglia = experiment: TNFα-stimulated microglial M1 activation, nitrite accumulation in culture medium; type: cell-based; conditions: cytokine (TNFα)-stimulated EOC-20 microglia, side-by-side
# Procedure: Reaction completion was monitored by thin-layer chromatography and product identity was confirmed by mass spectrometry (FIG. 31A). […] M1 activation of EOC-20 cells was assessed by measuring TNFα-stimulated nitrite production.
# RG2 glioma cells [3] = experiment: Proliferative capacity of glioma cells, tetrazolium reduction assay; type: cell-based, rat
# Procedure: FIG. 37: Graph showing a reduction in proliferative capacity of RG2 glioma cells exposed to 2-n-hexyl-LKE-P. Glioma cells were plated at low density and treated with the indicated concentration of compound for 24 or 48 h, at which time relative cell number was estimated using a tetrazolium reduction assay.
# Biomarkers of autophagy have been positively correlated with relatively better prognosis (longer patient lifespan) in humans suffering from high grade glioma. Accordingly, phosphonate analogs were tested for ability to reduce replicative capacity in RG2 glioma cells wherein the compounds increase autophagy. Cells were plated at low density (approximately 25,000 cells/[…]) using general cell culture methods, and treated with logarithmic dilutions of test agent. After 24 or 48 hours, cell number was estimated by a tetrazolium reduction assay using a commercially available kit (Promega Aqueous OneStep™). […] By 48 h the cells had largely achieved confluence and became somewhat contact inhibited, thus reducing the difference between control and treatment groups.
# CRMP2 = conditions: CRMP2-dependent fashion; cited from earlier work
# microglia = conditions: cell systems; cited from earlier work
# [4] = test system: SOD1^G93A mouse model of amyotrophic lateral sclerosis; conditions: cited from earlier work
# SHSY5Y neurons = conditions: cited from earlier work
# [5] = measurement of brain LKE levels and animal studies
# ULK1 system = experiment: ULK1 / ULK1(p757) autophagy stimulation assay (mTOR pathway), western blot; type: cell-based, rat; conditions: RG2 cells, 24 h; read-out: EC50 on the ULK1 system (ULK1 increase and ULK1(p757) decrease)
# Text: This technique has been documented in the literature for use in the comparison of the potency of individual compounds, relative to a recognized standard, and this technique has become a standard method of autophagy analysis. In addition to quantitating the stimulation of autophagy for the compounds, relative to LKE, because it is cell based, this assay also provides evidence that the compounds can permeate cell membranes. This affords valuable information for the comparison of individual compounds to stimulate autophagy, and will allow them to be ranked for use in the determination of a structure activity relationship (SAR). […] For validation purposes, a second, quantitative autophagy stimulation assay was utilized. […] This second assay provides validation for the LC3 assay.
# Western Blotting: The proteins were electrophoresed and wet-blotted to polyvinylidine difluoride membranes, blocked overnight in 4% bovine serum albumin, and developed using antibodies obtained from Cell Signaling Technology (LC3A: cat #. 4599; ULK1: cat #. 8054, ULK1(p757): cat #. 6880).
# C6 glioma tumor = conditions: C6 glioma xenograft into rat cortices; cited from earlier work
# [6] = test system: 3×Tg-AD mouse model of Alzheimer's disease; conditions: cited from earlier work
# [7] = test system: permanent middle cerebral artery occlusion (pMCAO); conditions: after pMCAO; cited from earlier work
# [8] = cell systems and C. elegans; cited from earlier work
# neurons = conditions: glutamate toxicity; cited from earlier work
# cells = conditions: H2O2 or t-butyl hydroperoxide; cited from earlier work
smiles,measurement,setting,value
CCCCC1=C(P(=O)(O)O)N[C@H](C(=O)O)CS1,stimulation of autophagy / autophagic flux (LC3-II increase in presence of bafilomycin-A1),RG2 glioma cells [1],enter into cells and stimulate autophagy to varying degrees
same,potency of autophagy stimulation relative to LKE (ratio of LC3-II band densities),RG2 glioma cells [1],comparable activity
same,potency of autophagy stimulation relative to LKE (ratio of LC3-II band densities),RG2 glioma cells [1]; listed as 2-butyl-LK-P,"more effective at inducing autophagic flux than, inter alia, LK-E"
same,stability to high vacuum pressures,[2],stable to high vacuum pressures at least overnight without visual or spectral decomposition
"CCOC(=O)[C@@H]1CSC(C(C)N2CCCC2=O)=C(C(=O)O)N1 (single isomer, unassigned) [NVP-LKE]",stimulation of autophagy / autophagic flux (LC3-II increase in presence of bafilomycin-A1),RG2 glioma cells [1],stimulates autophagy in RG2 cells
same,potency of autophagy stimulation relative to LKE (ratio of LC3-II band densities),RG2 glioma cells [1],better autophagy activation than LKE; also recorded: more potent autophagy stimulator than LKE
same,suppression of nitric oxide (nitrite) production / microglial activation relative to LKE,EOC-20 microglia,maintains or gains potency over LKE; also recorded: equal or superior to LKE; also recorded: as potent or more potent than LKE
"CC(C)C1=C(P(=O)(O)O)NCCS1 [2-isopropyl AECK-P, AminoEthyl Cysteine Ketimine-Phosphonate]",stimulation of autophagy / autophagic flux (LC3-II increase in presence of bafilomycin-A1),RG2 glioma cells [1],can enter cells to elicit a response
same,potency of autophagy stimulation relative to LKE (ratio of LC3-II band densities),RG2 glioma cells [1],comparable activity
"CC(C)C1=C(P(=O)(O)O)N[C@H](C(=O)O)CS1 [2-isopropyl-LK-P, 2-isopropyl lanthionine ketimine phosphonate]",stimulation of autophagy / autophagic flux (LC3-II increase in presence of bafilomycin-A1),RG2 glioma cells [1],stimulates autophagy in RG2 cells at low micromolar concentrations; also recorded: enter into cells and stimulate autophagy to varying degrees; also recorded: increase autophagic flux
same,potency on autophagic flux relative to LK,RG2 glioma cells [1]; at 10 μM,clearly more potent at 10 μM than LK was
same,potency on autophagic flux relative to LK,RG2 glioma cells [1]; at 10 mM (FIG. 6 legend),clearly was more potent at 10 mM than was LK
same,potency of autophagy stimulation relative to LK,RG2 glioma cells [1]; visual inspection of western blot,much more potent stimulator of autophagy than LK
same,potency of autophagy stimulation relative to LKE (ratio of LC3-II band densities),RG2 glioma cells [1],comparable activity
same,stability to high vacuum pressures,[2],stable to high vacuum pressures at least overnight without visual or spectral decomposition
CCCCCCC1=C(P(=O)(O)O)N[C@H](C(=O)OCC)CS1 [2-n-hexyl-LKE-P],cell number,RG2 glioma cells [3]; 48 h,dose-dependent reduction in the cell number
same,replication of cultures,RG2 glioma cells [3]; first 24 h,replicated more slowly
"O=C(O)C1=CSC[C@@H](C(=O)O)N1 [LK, (5R)-3,5,-dicarboxy-1-thia-4-aza-2-cyclohexene, reference compound]",stimulation of autophagy / autophagic flux (LC3-II increase in presence of bafilomycin-A1),RG2 glioma cells [1],increase autophagic flux
"CCOC(=O)C1CSC=C(C(=O)O)N1 (stereo not shown) [LKE, lanthionine ketimine-ethyl ester]",neurotrophic activity,CRMP2,potentiating growth factor-dependent neurite growth
same,anti-neuroinflammatory activity,microglia,decreasing microglial response to inflammatory cytokines
same,stimulation of autophagy / autophagic flux (LC3-II increase in presence of bafilomycin-A1),RG2 glioma cells [1],enter into cells and stimulate autophagy to varying degrees
same,lifespan and motor function,[4],increases lifespan and slows decline of motor function
same,amyloid reducing activity,SHSY5Y neurons,decreasing production of native Aβ(1-40)
same,βββ penetrability,[5],good βββ penetrability
same,EC50,ULK1 system,~50 nM
same,tumor growth,C6 glioma tumor,slows growth of C6 glioma tumor
same,"amyloid burden, phospho-tau, microglial activation, cognitive decline",[6],"decreases amyloid burden inside neurons and in plaques, decreases phospho-tau accumulation, decreases microglial activation, and slows cognitive decline"
same,infarct volume and functional recovery,[7],decreases infarct volume and improves functional recovery
same,axonal transport enhancement,[8],potentiating anterograde trafficking and delivery of synaptic proteins to the distal axon
same,anti-excitotoxin activity,neurons,protecting neurons from glutamate toxicity
same,antioxidant activity,cells,protecting cells against H2O2 or t-butyl hydroperoxide
